Square brackets hold non-standard residues; d marks the D form. Peptide text beside a SMILES is read from it. Aun = NCCCCCCCCCCC(=O)O; Aoc = NCCCCCCCC(=O)O
What was measured:
HsNMT1 = biological target: T1, HsNMT1 (Homo sapiens, UniProt P30419); assay: Fluorogenic NMT inhibition assay, HsNMT1; format: biochemical, H. sapiens; settings: for IC50: mean of duplicate or triplicate experiments
T1 sequence (P30419 1-496): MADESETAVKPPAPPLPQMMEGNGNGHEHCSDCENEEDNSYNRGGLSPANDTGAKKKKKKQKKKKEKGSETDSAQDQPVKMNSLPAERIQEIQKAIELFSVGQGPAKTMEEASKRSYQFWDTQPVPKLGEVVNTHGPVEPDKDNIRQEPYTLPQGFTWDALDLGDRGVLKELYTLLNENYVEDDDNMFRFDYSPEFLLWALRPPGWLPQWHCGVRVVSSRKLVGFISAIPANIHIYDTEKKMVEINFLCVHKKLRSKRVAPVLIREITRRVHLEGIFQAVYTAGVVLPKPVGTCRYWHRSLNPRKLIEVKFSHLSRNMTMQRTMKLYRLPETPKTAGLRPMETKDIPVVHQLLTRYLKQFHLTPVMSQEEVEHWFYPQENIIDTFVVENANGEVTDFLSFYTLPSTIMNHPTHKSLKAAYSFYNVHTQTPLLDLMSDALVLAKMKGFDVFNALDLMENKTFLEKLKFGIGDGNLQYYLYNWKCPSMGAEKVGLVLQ
From the text: (§1) 2-Methylimidazolyl analogues were synthesized building on the hypothesis that 2-methylimidazole (pK a ∼ 7.9)[18] is a reasonable mimetic for N-terminal Gly in the peptide substrate (pK a ∼ 8.0).[19] To cover a range of basicity, imidazolyl (pK a ∼ 7.0) and amine analogues (pK a ∼ 10.0) were also synthesized, each exploring a range of chain lengths (n) (Table 1). To probe versatility at the C-terminus, primary amides, carboxylic acids, 2-cyclohexylethyl and 2-(1-cyclohexenyl)ethyl amides were incorporated. Using a previously reported fluorogenic assay,[20] inhibitors were tested against the parasitic enzymes and HsNMT1 in order to explore their selectivity against a relevant host enzyme.

LdNMT = assay: Fluorogenic NMT inhibition assay, LdNMT; format: biochemical, L. donovani; settings: for IC50: recombinant enzyme, mean of duplicate or triplicate experiments
From the text: as §1, with “enzyme. […] Further reduction of the chain length (11 and 12, n = 8 and 7, respectively) led to loss of detectable activity against Plasmodium NMTs and significant loss of activity against LdNMT and HsNMT1.” for “enzyme.”

PvNMT = biological target: T2, PvNMT (Plasmodium vivax, UniProt A5K1A2); assay: Fluorogenic NMT inhibition assay, PvNMT; format: biochemical; settings: recombinant enzyme; mean of duplicate or triplicate experiments
T2 sequence (A5K1A2 1-410): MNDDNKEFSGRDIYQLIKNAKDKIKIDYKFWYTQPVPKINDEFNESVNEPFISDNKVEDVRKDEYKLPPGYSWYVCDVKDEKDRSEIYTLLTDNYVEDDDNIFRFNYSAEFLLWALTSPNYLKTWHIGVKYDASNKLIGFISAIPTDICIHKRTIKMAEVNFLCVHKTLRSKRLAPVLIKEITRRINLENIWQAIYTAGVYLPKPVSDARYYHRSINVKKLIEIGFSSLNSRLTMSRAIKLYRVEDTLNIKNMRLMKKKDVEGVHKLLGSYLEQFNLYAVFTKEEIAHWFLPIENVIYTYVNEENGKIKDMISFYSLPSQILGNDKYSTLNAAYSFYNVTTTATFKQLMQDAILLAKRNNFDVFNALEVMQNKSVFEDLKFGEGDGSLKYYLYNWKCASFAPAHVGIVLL
From the text: as §1, with “enzyme. […] Further reduction of the chain length (11 and 12, n = 8 and 7, respectively) led to loss of detectable activity against Plasmodium NMTs and significant loss of activity against LdNMT and HsNMT1.” for “enzyme.”

PfNMT = biological target: T3, PfNMT (Plasmodium falciparum, UniProt Q9U419); assay: Fluorogenic NMT inhibition assay, PfNMT; format: biochemical; settings: recombinant enzyme; mean of duplicate or triplicate experiments
T3 sequence (Q9U419 1-410): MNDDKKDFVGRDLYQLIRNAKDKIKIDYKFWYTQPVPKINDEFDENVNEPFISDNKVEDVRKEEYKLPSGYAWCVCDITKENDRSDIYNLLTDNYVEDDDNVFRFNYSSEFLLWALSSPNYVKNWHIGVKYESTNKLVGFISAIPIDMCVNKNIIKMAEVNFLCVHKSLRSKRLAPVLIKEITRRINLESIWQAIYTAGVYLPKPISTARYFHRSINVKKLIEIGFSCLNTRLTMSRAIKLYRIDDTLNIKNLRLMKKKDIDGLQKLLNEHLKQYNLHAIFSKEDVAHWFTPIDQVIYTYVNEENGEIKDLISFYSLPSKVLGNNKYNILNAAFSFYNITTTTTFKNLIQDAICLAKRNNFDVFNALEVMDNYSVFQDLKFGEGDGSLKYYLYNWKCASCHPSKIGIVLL
From the text: as §1, with “enzyme. […] Further reduction of the chain length (11 and 12, n = 8 and 7, respectively) led to loss of detectable activity against Plasmodium NMTs and significant loss of activity against LdNMT and HsNMT1.” for “enzyme.”

Leishmania NMT = assay: Substrate characteristics in Leishmania NMT; format: biochemical; settings: for Km: read-out: KM as substrate; for substrate activity: compound 10 tested up to 40 μM
Procedure: Unexpectedly, the electron maps indicated a mixture of ligand structures such that ∼20% of the electron density represents a N-myristoylated 10 product complex with the CoA by-product in LmNMT (Fig. 2D). This is the only structural evidence for a product complex in any N-myristoyltransferase, and captures and supports the proposed mechanism of action of NMT just prior to regeneration of the active enzyme. Kinetic experiments were performed to study 10 both as a potential substrate and as an NMT inhibitor. […] The N-myristoylation of 10 observed above therefore presumably occurs within the crystal where all reagents are present at high effective concentrations, and turnover is blocked by limited egress of products.
To probe the degree to which 10 acts as a true peptidomimetic, we investigated the potential to switch from inhibitor to a peptidomimetic substrate. […] In native NMT substrates, N-terminal Gly is preferred to the exclusion of all other residues, with relatively non-sterically demanding residues such as alanine. […]
[Substrate] (µM) [S b[Substrate] (µM) tt ]
Hs pp60src(2-9) Compound 10 Compound 27 Compound 28
Figure S4: Substrate characteristics of H. sapiens p60src(2-16), compound 10 and modified
inhibitors 27 and 28 in Leishmania NMT.

[1] = hydroxyl substituted for the N-terminal amine

Compound | loss in activity, Human NMT (HsNMT1; [1]) | loss in activity, Leishmania NMT (LdNMT; [1]) | IC50 (PvNMT) | IC50 (HsNMT1) | IC50 (PfNMT) | IC50 (LdNMT) | Vmax as substrate (Leishmania NMT; Leishmania NMT) | Km (Leishmania NMT; Leishmania NMT) | substrate activity (Leishmania NMT) | KM as substrate (Leishmania NMT; Leishmania NMT)
NCCCC[C@H](NC(=O)[C@H](CO)NC(=O)CCCCCCCCCO)C(=O)NCCC1CCCCC1 [Compound 46] | 1000 folds | > 100 folds | – | – | – | – | – | – | – | –
NCCCCCCCCCCC(=O)N[C@@H](CO)C(=O)N[C@@H](CCCCN)C(N)=O [Compound 21] (H-[Aun]-Ser-Lys-NH2) | – | – | > 100 µM | 5.4 ± 0.41 µM | > 100 µM | 13.3 ± 2 µM | – | – | – | –
Cc1nccn1CCCCCCCCCC(=O)N[C@@H](CO)C(=O)N[C@@H](CCCCN)C(=O)NCCC1CCCCC1 [Compound 6] | – | – | > 100 µM | 7.92 ± 0.83 µM | > 100 µM | 0.63 ± 0.01 µM | – | – | – | –
NCCCCCCCC(=O)N[C@@H](CO)C(=O)N[C@@H](CCCCN)C(N)=O [Compound 24] (H-[Aoc]-Ser-Lys-NH2) | – | – | > 100 µM | > 100 µM | > 100 µM | 61.9 ± 4.7 µM | – | – | – | –
NCCCCCCCCCCC(=O)N[C@@H](CO)C(=O)N[C@@H](CCCCN)C(=O)NCCC1=CCCCC1 [Compound 15] | – | – | 12.9 ± 1.07 µM | 2.3 ± 0.14 µM | > 100 µM | 6.6 ± 1.28 µM | – | – | – | –
NCCCCCCCCCC(=O)N[C@@H](CO)C(=O)N[C@@H](CCCCN)C(=O)NCCC1=CCCCC1 [Compound 16] | – | – | 3.55 ± 0.38 µM | 0.67 ± 0.04 µM | > 100 µM | 0.44 ± 0.04 µM | – | – | – | –
Cc1nccn1CCCCCCCC(=O)N[C@@H](CO)C(=O)N[C@@H](CCCCN)C(=O)NCCC1CCCCC1 [Compound 8] | – | – | > 100 µM | 82.2 ± 14 µM | > 100 µM | 1.46 ± 0.22 µM | – | – | – | –
NCCCCCCCCCCC(=O)N[C@@H](CO)C(=O)N[C@@H](CCCCN)C(=O)O [Compound 25] (H-[Aun]-Ser-Lys-OH) | – | – | > 100 µM | 39.2 ± 2 µM | > 100 µM | 86.7 ± 10.4 µM | – | – | – | –
Cc1nccn1CCCCCCCCCC(=O)N[C@@H](CO)C(=O)N[C@@H](CCCCN)C(=O)NCCC1=CCCCC1 [Compound 20] | – | – | > 100 µM | > 100 µM | > 100 µM | – | – | – | – | –
NCCCCCCCCC(=O)N[C@@H](CO)C(=O)N[C@@H](CCCCN)C(N)=O [Compound 23] | – | – | > 100 µM | 33.1 ± 2.5 µM | > 100 µM | 27.1 ± 2.6 µM | – | – | – | –
NCCCC[C@H](NC(=O)[C@H](CO)NC(=O)CCCCCCCCCCn1ccnc1)C(=O)NCCC1=CCCCC1 [Compound 17] | – | – | > 100 µM | > 100 µM | > 100 µM | > 100 µM | – | – | – | –
NCCCC[C@H](NC(=O)[C@H](CO)NC(=O)CCCCCCCCCn1ccnc1)C(=O)NCCC1=CCCCC1 [Compound 18] | – | – | > 100 µM | > 100 µM | > 100 µM | > 100 µM | – | – | – | –
Cc1nccn1CCCCCCCCC(=O)N[C@@H](CO)C(=O)N[C@@H](CCCCN)C(=O)NCCC1CCCCC1 [Compound 7] | – | – | > 100 µM | 49.9 ± 10.6 µM | > 100 µM | 3.42 ± 0.34 µM | – | – | – | –
NCCCCCCCCCC(=O)N[C@@H](CO)C(=O)N[C@@H](CCCCN)C(N)=O [Compound 22] | – | – | 22.9 ± 3.5 µM | 1.36 ± 0.29 µM | > 100 µM | 1.36 ± 0.2 µM | – | – | – | –
NCCCC[C@H](NC(=O)[C@H](CO)NC(=O)CCCCCCCCn1ccnc1)C(=O)NCCC1CCCCC1 [Compound 3] | – | – | > 100 µM | > 100 µM | > 100 µM | 16.7 ± 2.5 µM | – | – | – | –
GSNKSKPK-NH2 [reference compound] | – | – | – | – | – | – | 113616.7 ± 3962.0 RFU.s-1 | 22.6 µM | – | –
NCCCC[C@H](NC(=O)[C@H](CO)NC(=O)CCCCCCNC(=O)CN)C(=O)NCCC1CCCCC1 [Compound 27] | – | – | – | – | – | – | 6596.4 ± 281.4 RFU.s-1 | 1.3 µM | substrate | –
NCCCC[C@H](NC(=O)[C@H](CO)NC(=O)CCCCCCCn1ccnc1)C(=O)NCCC1CCCCC1 [Compound 4] | – | – | > 100 µM | > 100 µM | > 100 µM | 34.8 ± 3.7 µM | – | – | – | –
CC(=O)N[C@@H](CO)C(=O)N[C@@H](CCCCN)C(=O)NCCC1CCCCC1 [Compound 14] | – | – | > 100 µM | > 100 µM | > 100 µM | > 100 µM | – | – | – | –
NCCCCCCCC(=O)N[C@@H](CO)C(=O)N[C@@H](CCCCN)C(=O)NCCC1CCCCC1 [Compound 12] | – | – | > 100 µM | 6.75 ± 0.45 µM | > 100 µM | 1.39 ± 0.18 µM | – | – | – | –
NCCCCCCCCCCC(=O)N[C@@H](CO)C(=O)N[C@@H](CCCCN)C(=O)NCCC1CCCCC1 [Compound 9] | – | – | 1.04 ± 0.01 µM | – | > 100 µM | 0.14 ± 0.01 µM | – | – | – | –
C[C@H](N)C(=O)NCCCCCCC(=O)N[C@@H](CO)C(=O)N[C@@H](CCCCN)C(=O)NCCC1CCCCC1 [Compound 28] | – | – | – | – | – | – | Not measurable | – | no detectable substrate activity | Not measurable
NCCCC[C@H](NC(=O)[C@H](CO)NC(=O)CCCCCCCCCCn1ccnc1)C(=O)NCCC1CCCCC1 [Compound 1] | – | – | > 100 µM | 47.6 ± 3.8 µM | > 100 µM | 25.8 ± 8.2 µM | – | – | – | –
Cc1nccn1CCCCCCCCCCC(=O)N[C@@H](CO)C(=O)N[C@@H](CCCCN)C(=O)NCCC1CCCCC1 [Compound 5] | – | – | > 100 µM | 21.8 ± 0.8 µM | > 100 µM | > 100 µM | – | – | – | –
NCCCC[C@H](NC(=O)[C@H](CO)NC(=O)CCCCCCCCCn1ccnc1)C(=O)NCCC1CCCCC1 [Compound 2] | – | – | > 100 µM | 44 ± 7.1 µM | > 100 µM | 10.6 ± 1.6 µM | – | – | – | –
Cc1nccn1CCCCCCCCCCC(=O)N[C@@H](CO)C(=O)N[C@@H](CCCCN)C(=O)NCCC1=CCCCC1 [Compound 19] | – | – | > 100 µM | > 100 µM | > 100 µM | > 100 µM | – | – | – | –
NCCCCCCCCC(=O)N[C@@H](CO)C(=O)N[C@@H](CCCCN)C(=O)NCCC1CCCCC1 [Compound 11] | – | – | > 100 µM | 7.68 ± 0.86 µM | > 100 µM | 2.01 ± 0.3 µM | – | – | – | –
NCCCCCCCCCC(=O)N[C@@H](CO)C(=O)N[C@@H](CCCCN)C(=O)O [Compound 26] | – | – | > 100 µM | 92.1 ± 17.6 µM | > 100 µM | > 100 µM | – | – | – | –
